The format of series [1] is physicochemical. The method in brief: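 Preformed peptide fibrils (1 mg/mL) mixed with 50 µM ThT in PBS, 15 min at RT, fluorescence ex 440/em 488 nm versus PBS blank, triplicates. Zeta potential: peptides at 1 mg/mL in PBS pH 7.4, aged 1 d at RT, diluted in 1 mM KCl, Smoluchowski from electrophoretic mobility.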
The format of series [2] is physicochemical. Conditions: STD prep.
The nature of series [3]: β-sheet content by ATR-FT-IR. It is filed as physicochemical. The conditions noted are these: ATR-FT-IR. In outline:
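Conversion rate: fluorescamine fluorescence (ex 365/em 470 nm, 20 min RT) of 3 kDa filtrate versus unfiltered PNF, CR = 100 − 100 × filtrate/original intensity, triplicates. β-sheet content came from ATR FT-IR of lyophilized 1 mg/mL PNF powder, 64 scans.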

[4] abbreviates: ThT fluorescence relative to blank (42.1851851851852 a.u.).
The mark [5] stands for this setting: relative to blank 42.1851851851852 a.u.
Setting [6] is: ThT fluorescence relative to blank, blank = 42.1851851851852.

Where two headings read alike, the source gives them in different places.

This note sets out measurements from PMC10447463, “Data-mining unveils structure–property–activity correlation of viral infectivity enhancing self-assembling peptides” (Nature Communications, 2023).

Consider RGDKIKIQI [MG14], for which the “Tht category (> 1.5 to blank = +)” value is reported as 1 (Tht category (> 1.5 to blank = +)) in series [1] (FigS26) and 1 (ThT. Cat is 1, if Rel. ThT >2) in series [1] (category 1/0). Besides, the “Tht rel to blank (42.1851851851852)” value in series [1] (setting [4]) and in series [1] (setting [5]) was 5.578 each time. The “TEM: 1= fibrils, 0= aggregates (micelle), 0.5 = aggregates and fibrils, -1 = nothing obersved, STD prep” value (shortened to “TEM: 1= fibrils, 0= aggregates (micelle)”) in series [2] is on record as 1.

For RGDCKIKIQINM [TM45], the “Tht category (> 1.5 to blank = +)” value in series [1] (FigS26) is 0 (Tht category (> 1.5 to blank = +)); in series [1] (category 1/0), 0 (ThT-inactive (N-Fold <2)). In addition, the “Tht rel to blank (42.1851851851852)” value in series [1] (setting [4]) and in series [1] (setting [5]) was 1.835 each time. Further, the “TEM: 1= fibrils, 0= aggregates (micelle)” value in series [2] was 1.

Consider QCKIKQIINM [CK5], for which the “Tht rel to blank (42.1851851851852)” value in series [1] (setting [4]), in series [1] (setting [6]) and in series [1] (setting [5]) was 23.32 in each case. Besides, the “Tht category (> 1.5 to blank = +)” value in series [1] (category 1/0) is on record as 1 (ThT. Cat is 1, if Rel. ThT >2). Further, the “TEM: 1= fibrils, 0= aggregates (micelle)” value in series [2] worked out at 1.

In the case of CKWKWQW [KB4], the “Tht category (> 1.5 to blank = +)” value in series [1] (category 1/0) was 0 (ThT-inactive (N-Fold <2)). For the same substance, in series [1] (setting [5]), the “Tht rel to blank (42.1851851851852)” value was found to be 1.321. Besides, in series [2], the “TEM: 1= fibrils, 0= aggregates (micelle)” value is on record as 0.

For the substance CKIKIQINMW [TM86], the “Tht rel to blank (42.1851851851852)” value in series [1] (setting [4]) and in series [1] (setting [5]) was 1.353 throughout. Also, in series [1] (category 1/0), the “Tht category (> 1.5 to blank = +)” value is 0 (ThT-inactive (N-Fold <2)). In series [2], the “TEM: 1= fibrils, 0= aggregates (micelle)” value worked out at 1.

QCKIKIQI [CK3]: the “Tht rel to blank (42.1851851851852)” value in series [1] (setting [4]) and in series [1] (setting [5]) was 2.039 in each case. In addition, the “Tht category (> 1.5 to blank = +)” value in series [1] (category 1/0) was 1 (ThT. Cat is 1, if Rel. ThT >2). Also, the “TEM: 1= fibrils, 0= aggregates (micelle)” value in series [2] amounted to 1.

Regarding RGDKIKIQIC [MG7/CN1], the “Tht category (> 1.5 to blank = +)” value in series [1] (FigS26) is 1 (Tht category (> 1.5 to blank = +)); in series [1] (category 1/0), 1 (ThT. Cat is 1, if Rel. ThT >2). Besides, the “Tht rel to blank (42.1851851851852)” value in series [1] (setting [4]) and in series [1] (setting [5]) was 19.76 each time. Moreover, in series [2], the “TEM: 1= fibrils, 0= aggregates (micelle)” value was determined as 1.

Turning to KIKIQINMW [JGB1 /TM85], the “Tht rel to blank (42.1851851851852)” value in series [1] (setting [4]) and in series [1] (setting [5]) was 4.61 each time. The “Tht category (> 1.5 to blank = +)” value in series [1] (category 1/0) is recorded as 1 (ThT. Cat is 1, if Rel. ThT >2). Also, the “TEM: 1= fibrils, 0= aggregates (micelle)” value in series [2] is 1.

As to KAKAQANM [TM152], the “Tht rel to blank (42.1851851851852)” value in series [1] (setting [4]) and in series [1] (setting [5]) was 1.082 throughout. Further, the “Tht category (> 1.5 to blank = +)” value in series [1] (category 1/0) was 0 (ThT-inactive (N-Fold <2)). In addition, the “TEM: 1= fibrils, 0= aggregates (micelle)” value in series [2] was 0.5.

RGDSKIKIQIC [TM113 / RC11]: the “Tht rel to blank (42.1851851851852)” value in series [1] (setting [4]) is 13.8. In series [3], the “FTIR ß-sheet content/ %” value is 39%.

In the case of CQFQFQF [QBL4], the “Tht category (> 1.5 to blank = +)” value in series [1] (category 1/0) is 1 (ThT. Cat is 1, if Rel. ThT >2). In series [1] (setting [5]), the “Tht rel to blank (42.1851851851852)” value was determined as 13.03. In addition, in series [2], the “TEM: 1= fibrils, 0= aggregates (micelle)” value is recorded as 1.

In the case of CKFKFQFNMW [KB14], in series [1] (category 1/0), the “Tht category (> 1.5 to blank = +)” value is on record as 1 (ThT. Cat is 1, if Rel. ThT >2). The “Tht rel to blank (42.1851851851852)” value in series [1] (setting [5]) is recorded as 6.314. In series [2], the “TEM: 1= fibrils, 0= aggregates (micelle)” value was determined as 1.

QCKIKIQINM [CK2]: the “Tht rel to blank (42.1851851851852)” value in series [1] (setting [4]) and in series [1] (setting [5]) was 2.548 each time. In addition, the “Tht category (> 1.5 to blank = +)” value in series [1] (category 1/0) is on record as 1 (ThT. Cat is 1, if Rel. ThT >2). Further, in series [2], the “TEM: 1= fibrils, 0= aggregates (micelle)” value is listed as 1.

For the substance QCKFKFQFNM [CK8], the “Tht rel to blank (42.1851851851852)” value in series [1] (setting [4]) and in series [1] (setting [5]) was 2.317 in each case. Further, in series [1] (category 1/0), the “Tht category (> 1.5 to blank = +)” value is on record as 1 (ThT. Cat is 1, if Rel. ThT >2). For the same substance, in series [2], the “TEM: 1= fibrils, 0= aggregates (micelle)” value is given as 1.

Turning to MKIKIQINMWQ [TM52], the “Tht rel to blank (42.1851851851852)” value in series [1] (setting [4]) and in series [1] (setting [5]) was 4.061 throughout. In addition, the “Tht category (> 1.5 to blank = +)” value in series [1] (category 1/0) was 1 (ThT. Cat is 1, if Rel. ThT >2). The “TEM: 1= fibrils, 0= aggregates (micelle)” value in series [2] is 1.

Consider QCKIKQII [CK6], for which the “Tht rel to blank (42.1851851851852)” value in series [1] (setting [4]), in series [1] (setting [6]) and in series [1] (setting [5]) was 2.961 each time. Also, in series [1] (category 1/0), the “Tht category (> 1.5 to blank = +)” value is recorded as 1 (ThT. Cat is 1, if Rel. ThT >2). For the same substance, in series [2], the “TEM: 1= fibrils, 0= aggregates (micelle)” value stood at 1.
